Legend:
[1] = target: T1, R15B (Homo sapiens, UniProt Q5SWA1); assay: Pull-down: binding of P-eIF2α to MBP-tagged R15B on amylose beads; conditions: 200 μM compound, 200 nM MBP-R15B, 1 μM P-eIF2α, 10 min 4° C.
T1 construct: PPP1R15B amino acids 340-698 (R15B); His6 (C); made in house; host or cells: E. coli BL21 pLysS
T1 sequence (Q5SWA1 340-698): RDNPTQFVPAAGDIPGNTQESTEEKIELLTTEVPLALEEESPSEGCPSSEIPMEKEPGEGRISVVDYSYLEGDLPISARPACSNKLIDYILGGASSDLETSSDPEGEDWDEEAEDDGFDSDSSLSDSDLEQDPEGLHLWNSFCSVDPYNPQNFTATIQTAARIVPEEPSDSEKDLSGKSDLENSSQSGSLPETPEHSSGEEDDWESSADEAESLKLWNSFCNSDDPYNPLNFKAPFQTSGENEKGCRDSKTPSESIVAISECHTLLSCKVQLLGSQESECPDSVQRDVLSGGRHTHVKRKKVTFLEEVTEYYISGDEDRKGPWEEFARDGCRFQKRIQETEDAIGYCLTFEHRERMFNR
Experimental: Purified MBP-tagged regulatory subunits (200 nM), P-eIF2α (1 μM), PP1c ([…]), and 200 μM compounds, or DMSO vehicle, were added as appropriate to 20 μl amylose magnetic bead, pre-equilibrated with interaction buffer (50 mM Tris (pH 7.4), 200 mM NaCl, 0.05% Tween20) in 200 μl volume. All protein dilutions were carried out in interaction buffer. 5% input sample was removed, and added to 4× Laemmli sample buffer for later analysis. The beads were incubated for 10′ at 4° C. The supernatant was removed, and the beads were washed thoroughly with interaction buffer and then resuspended with 50 μl of 2× Laemmli sample buffer. Samples were run on 4-12% NuPAGE Bis-Tris gels (Life Technologies) and analysed by immunoblotting, using anti-MBP HRP (E8038) (NEB), anti-eIF2α (ab26197) (AbCam) or anti-PPP1A (ab137512) (AbCam) antibodies.

[2] = target: T2, R15B-PP1c (Homo sapiens, UniProt Q5SWA1); assay: In vitro dephosphorylation of P-eIF2α by recombinant R15B-PP1c holophosphatase (10 nM PP1c); format: biochemical; conditions: PP1c 10 nM, 1 μM P-eIF2α, compounds 100 μM, 30° C., 16 h
T2 construct: PPP1R15B amino acids 340-698 (R15B); His6 (C); made in house; host or cells: E. coli BL21 pLysS (R15B, eIF2α); E. coli BL21/pGro7 (PP1c)
Experimental: (§1) PP1c was diluted to the appropriate concentration (as indicated in the figure legends) in dephosphorylation buffer immediately prior to use. Dephosphorylation reactions were carried out by pre-incubating diluted PP1c in the presence or absence of regulatory subunits (either […]), and/or compounds (all at 100 μM, except for Salubrinal which was used at 30 μM), for 15′ at RT. All compounds were diluted in DMSO, and DMSO vehicle was used in all control experiments.
The reaction was initiated by the addition of 1 μM P-eIF2α or ^33P Phosphorylase a substrates and then incubated at 30° C. for 16 h with shaking at 350 rpm. Reactions were stopped by addition of 4× Laemmli sample buffer. eIF2α samples were analyzed by immunoblotting or Phos-tag gels. P-eIF2α dephosphorylation was analysed by immunoblotting using anti-Phospho-eIF2α (SerS1) (#9721) (Cell Signaling) and anti-eIF2α (ab26197) (AbCam) antibodies. Samples in FIG. 8 and FIG. 16 were run on a 15% SuperSep Phos-tag acrylamide gel (Alpha Laboratories) and visualized by staining with InstantBlue Protein Stain.

[3] = target: T3, R15A (Homo sapiens, UniProt O75807); assay: Binding of R15A to biotinylated compounds on Streptavidin beads and elution
T3 construct: PPP1R15A amino acids 325-636 (R15A); His6 (C); made in house; host or cells: E. coli BL21 pLysS
Experimental: Purified R15A protein was diluted to 1 μM in IP buffer (50 mM Tris [pH 7.4], 150 mM NaCl, 0.1% Tween20, 10% glycerol). 1 μM R15A, in 100 μl volume, was pre-cleared with 25 μl of Pierce Streptavidin Magnetic Beads (ThermoFisher) for 1 h at 4° C. with rotation at 20 rpm. […] Samples were incubated for 3 h at 4° C. with rotation at 20 rpm. The supernatant was removed, and samples were thoroughly washed and transferred to a fresh Eppendorf. The beads were washed thoroughly with 5×1 ml interaction buffer, with 30 min incubation each time, and then resuspended with 50 μl of 4% SDS Laemmli sample buffer. Samples were run on 4-12% NuPAGE Bis-Tris gels (Life Technologies), and analysed by immunoblotting using α-MBP HRP (E8038) (NEB) (to reveal R15A). […] Samples were incubated for 10 min at 4° C. with 20 rpm rotation. 30 μl of supernatant was added to 10 μl of 16% SDS Laemmli sample buffer. 10 μl sample was run on 4-12% NuPAGE Bis-Tris gel (Life Technologies), and analysed by immunoblotting using α-MBP HRP (E8038) (NEB) (to reveal R15A).

[4] = target: T4, R15B^N/R15A^C (Homo sapiens, UniProt O75807+Q5SWA1); assay: Dephosphorylation of P-eIF2α by chimeric holophosphatase PP1c-R15B^N/R15A^C; format: biochemical; conditions: PP1c 10 nM, compounds 100 μM, 30° C., 16 h
T4 construct: PPP1R15B amino acids 340-698 (R15B), 340-635 (R15B^N), and 636-698 (R15B^C); PPP1R15A amino acids 325-636 (R15A), 325-512 (R15A^N), and 513-636 (R15A^C); R15A^C (PPP1R15A amino acids 513-636); His6 (C); made in house; host or cells: E. coli BL21 pLysS (chimera, eIF2α); E. coli BL21/pGro7 (PP1c)
From the text: The cDNA encoding human PPP1R15A, PPP1R15B and PPP1R3A regulatory subunits were cloned into a pMAL-c5×-His vector, encoding for an amino-terminal MBP-tag and a carboxy-terminal His6-tag. […] R15A^N/R15B^C Chimeras were obtained by swapping the amino-terminal regions (R15^N) of R15A and R15B proteins described above, whilst maintaining the same carboxy-terminal regions (R15^C), to produce R15B^N/R15A^C and […] chimeras respectively, using In-Fusion cloning (Takara). All regulatory subunits were expressed in BL21 pLysS cells in Luria broth (LB) at 30° C. overnight. […] R15 proteins were stored at −80° C. and used within one month.
as §1
The reaction was initiated by the addition of 1 μM P-eIF2α or ^33P Phosphorylase a substrates and then incubated at 30° C. for 16 h with shaking at 350 rpm. Reactions were stopped by addition of 4× Laemmli sample buffer. eIF2α samples were analyzed by immunoblotting or Phos-tag gels. […]

T4 sequence (Q5SWA1+O75807 fused, stated change not applied): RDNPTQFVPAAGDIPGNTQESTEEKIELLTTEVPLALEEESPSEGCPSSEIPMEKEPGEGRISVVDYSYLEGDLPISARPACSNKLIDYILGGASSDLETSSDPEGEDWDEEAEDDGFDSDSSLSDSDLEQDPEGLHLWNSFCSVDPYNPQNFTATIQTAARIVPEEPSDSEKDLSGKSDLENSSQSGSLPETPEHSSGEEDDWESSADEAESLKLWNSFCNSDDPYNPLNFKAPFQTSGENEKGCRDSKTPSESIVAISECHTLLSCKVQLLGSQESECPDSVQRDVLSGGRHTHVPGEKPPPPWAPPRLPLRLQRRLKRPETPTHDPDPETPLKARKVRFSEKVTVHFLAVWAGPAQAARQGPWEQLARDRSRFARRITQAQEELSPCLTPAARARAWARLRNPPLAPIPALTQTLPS
T4 sequence (P62136 7-330 partner): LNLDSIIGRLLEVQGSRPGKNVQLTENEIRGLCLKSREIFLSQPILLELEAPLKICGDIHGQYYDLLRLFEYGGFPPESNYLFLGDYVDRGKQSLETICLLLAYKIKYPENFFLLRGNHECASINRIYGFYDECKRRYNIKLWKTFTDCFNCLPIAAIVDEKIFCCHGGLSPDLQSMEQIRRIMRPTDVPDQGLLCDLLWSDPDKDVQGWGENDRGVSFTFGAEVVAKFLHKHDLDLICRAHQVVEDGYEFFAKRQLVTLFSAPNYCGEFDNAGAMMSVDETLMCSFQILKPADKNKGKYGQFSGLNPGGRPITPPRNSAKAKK
T3 sequence (O75807 325-636, stated change not applied): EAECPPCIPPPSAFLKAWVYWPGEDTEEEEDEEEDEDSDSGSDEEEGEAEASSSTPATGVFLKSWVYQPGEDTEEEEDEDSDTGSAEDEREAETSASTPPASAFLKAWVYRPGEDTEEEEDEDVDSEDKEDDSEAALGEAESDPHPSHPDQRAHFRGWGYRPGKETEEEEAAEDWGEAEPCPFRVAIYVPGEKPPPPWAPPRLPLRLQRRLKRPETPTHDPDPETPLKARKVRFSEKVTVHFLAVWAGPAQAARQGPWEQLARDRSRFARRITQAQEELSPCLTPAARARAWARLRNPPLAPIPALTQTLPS
T2 sequence (P62136 7-330 partner limits assumed, one chain of several): as the sequence (P62136 7-330 partner) above

effect on binding of eIF2α to R15B [1]	inhibition of R15B-PP1c eIF2α holophosphatase [2]	binding to R15A ([3]; 0.5 mM biotinylated compound on Streptavidin beads, 1 μM R15A)	nature of binding to R15A (elution with excess compound) ([3]; elution with 2 mM free compound)	inhibition of R15B^N/R15A^C chimeric holophosphatase [4]	Compound
no such effect was observed	not R15B-PP1c	directly bind R15A	not covalent	largely insensitive	N=C(N)N/N=C/c1c(Cl)cccc1Cl [Guanabenz]
decreased the binding of eIF2α to R15B	selectively inhibited R15B-PP1c			selectively inhibited R15B^N/R15A^C	NC(N)=N/N=C/c1cccc(Cl)c1Cl [Raphin1]
